Assay results published in US11491127B2, “Therapeutic use of compounds” (UCL BUSINESS LTD, priority 2010, dated 2022).

Experiments:
[1] = test system: phosphoinositide (PIP and PIP2) turnover in Dictyostelium AX2 cells; test: Dictyostelium phospholipid labelling (PIP and PIP2 turnover); assay type: cell-based, Dictyostelium discoideum; conditions: wild type Dictyostelium; for activity at 500 µM: Dictyostelium, 0.1 h, read-out: PIP Level (% control), Table 1, 0.5 mM compound, 3 min pre-treatment + 6 min labelling
Experimental: Phospholipid labelling was quantified using a Typhoon phosphor-imager. Even loading was determined using total lipid stain with copper sulphate.

[2] = test system: inositol trisphosphate (InsP3) levels in Dictyostelium; conditions: Eickholt et al., 2005; cited from earlier work
[3] = test system: release of 3H arachidonic acid / palmitic acid radiolabel from Dictyostelium cells; test: Fatty acid release (3H radiolabel release from labelled cells); assay type: cell-based, Dictyostelium discoideum
[4] = test system: self-sustaining status epilepticus in Sprague Dawley rats; test: In vivo status epilepticus (perforant path stimulation); set-up: species or system rat; conditions: 400 mg/kg
Experimental: This method has been described in detail previously (Walker et al., 1999). In brief, male Sprague Dawley rats […] were anesthetized with 1-2% isoflurane in O2. An earth electrode was positioned subcutaneously, and a monopolar recording electrode was implanted stereotactically into the right hippocampus (coordinates, 2.5 mm lateral and 4 mm caudal from bregma). A bipolar stimulating electrode was implanted in the right hemisphere and advanced into the angular bundle (coordinates, 4.4 mm lateral and 8.1 mm caudal from bregma) to stimulate the perforant path. The depths of the electrodes were adjusted to maximize the slope of the dentate granule cell field potential (Guo et al., 1999). The electrodes were held in place with dental acrylic and skull screws. The animals were allowed to recover from anaesthesia. Seven days later, the perforant path was electrically stimulated with 4-5 mA 50 μsec monopolar pulses at 20 Hz for 2 hr; this induced self-sustaining status epilepticus. After 10 min of self-sustaining status epilepticus, compounds or vehicle were administered and the behavioural seizures and EEG were monitored for 3 hours. At this point diazepam (10 mg/kg) was administered to all animals to stop the status epilepticus. Groups were compared by ANOVA followed by post-hoc testing using Tukey test, using SPSS.

[5] = test system: PTZ-induced epileptiform activity in entorhinal cortex-hippocampal slices; test: In vitro PTZ acute seizure model, entorhinal cortex-hippocampus slices; assay type: cell-based, rat; conditions: PTZ 2 mM, [K+] 6 mM; compounds equimolar 1 mM; 30 to 40 minutes after application
Experimental: (§1) The rats (p21) were decapitated after killing by intraperitoneal injection with an overdose of pentobarbitone (500 mg/kg). The brain was removed and placed in ice-cold sucrose solution in mM: NaCl 87, KCl 2.5, MgCl2 7, CaCl2 0.5, NaH2PO4 1.25, sucrose 75, glucose 25, equilibrated with 95% 02/5% CO2 (pH 7.4). Horizontal combined entorhinal cortex-hippocampus slices (350 μm) were prepared with a Leica vibratome (Leica V T1200S) and were then stored in an interface chamber that contained artificial cerebrospinal fluid solution (aCSF) containing in mM: NaCl 119, KCl 2.5, MgSO4 4, CaCl2 4, NaHCO326.2, NaH2PO4 1, glucose 11, and gassed with 95% O2/5% CO2. They were stored for over one hour before being transferred to a submersion recording chamber continually perfused with carbogenated aCSF for recording. Field potential recordings were made by placing glass microelectrodes (˜1-2 MΩ) filled with aCSF solution in stratum radiatum of CA1. Bipolar stimulating electrodes were positioned in the Schaffer collateral/commissural fibre pathway in stratum radiatum to confirm slice viability. In the PTZ acute seizure model, PTZ (2 mM) was added to the perfusate and [K+] was increased to 6 mM in order to induce epileptiform activity (Armand et al., 1998). In the low Mg^2+ acute seizure model, Mg^2+ free aCSF was applied to generate rhythmic short recurrent discharges. Novel anticonvulsants were applied once the frequency and amplitude of the epileptiform discharges were stable over a period of 10 min. Anticonvulsant effects were evaluated by measuring the variation of frequency of the discharges every minute. The data acquired from the 30 to 40 minutes after application novel anticonvulsants were compared by ANOVA followed by post-hoc testing using Tukey test, using SPSS statistical analysis.

[6] = test system: inositol levels in Dictyostelium cells; test: Inositol levels in treated Dictyostelium cells; assay type: cell-based, Dictyostelium discoideum; conditions: time period causing phosphoinositide attenuation (9 min)
Experimental: Following a 6 min incubation, labelling solution was removed and cells were lysed in acidified methanol and phospholipids were separated as previously detailed (Williams et al., 1999). Phospholipid labelling was quantified using a Typhoon phosphor-imager. Even loading was determined using total lipid stain with copper sulphate. Inositol levels were measured from five hour developed cells (similar to phospholipid labelling), following lyophilisation, as previously described (Maslanski & Busa, 1990).

[7] = test system: low magnesium-induced burst discharges in entorhinal cortex-hippocampal slices; test: In vitro low Mg2+ acute seizure model, entorhinal cortex-hippocampus slices; assay type: cell-based, rat; conditions: 1 mM, 30-40 minutes after application
Experimental: as §1, with “In the low Mg^2+ acute seizure model, Mg^2+ free aCSF was applied to generate rhythmic short recurrent discharges. Novel anticonvulsants were applied once the frequency and amplitude of the epileptiform discharges were stable over a period of 10 min.” left out, “The data acquired from the 30 to 40 minutes after application novel anticonvulsants were compared by ANOVA followed by post-hoc testing using Tukey test, using SPSS statistical analysis.” left out

[8] = test system: uptake of 3H arachidonic acid / palmitic acid into Dictyostelium cells; test: Fatty acid uptake (3H radiolabel incorporation into cells); assay type: cell-based, Dictyostelium discoideum; conditions: 3H-AA; FIG. 9
[9] = test system: self-sustaining status epilepticus in Sprague Dawley rats; conditions: previously shown (Chang et al., 2009); cited from earlier work
[10] = molecular target: T1, human myo-inositol synthase (Homo sapiens, UniProt Q9NPH2); conditions: Shaltiel et al., 2004, 2007a; cited from earlier work
T1 sequence (Q9NPH2 1-558): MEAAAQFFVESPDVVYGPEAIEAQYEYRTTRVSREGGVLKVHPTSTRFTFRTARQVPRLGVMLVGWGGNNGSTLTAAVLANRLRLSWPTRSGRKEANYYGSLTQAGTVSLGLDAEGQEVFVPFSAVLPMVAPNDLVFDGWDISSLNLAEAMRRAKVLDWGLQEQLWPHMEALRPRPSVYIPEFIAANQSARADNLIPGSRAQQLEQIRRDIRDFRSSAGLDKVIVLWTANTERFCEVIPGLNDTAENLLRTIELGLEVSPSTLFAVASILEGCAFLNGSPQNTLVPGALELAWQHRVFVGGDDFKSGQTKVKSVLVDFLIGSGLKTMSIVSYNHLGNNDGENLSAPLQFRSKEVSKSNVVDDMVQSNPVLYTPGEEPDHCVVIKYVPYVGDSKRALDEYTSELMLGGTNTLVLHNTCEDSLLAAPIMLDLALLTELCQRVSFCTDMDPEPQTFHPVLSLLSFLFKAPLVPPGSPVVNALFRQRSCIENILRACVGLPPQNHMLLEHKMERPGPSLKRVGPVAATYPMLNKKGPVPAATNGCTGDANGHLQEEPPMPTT

For CCC=C(C)C(=O)O [2-methyl-2-pentenoic acid], the activity at 500 µM [1] is given as 14.8% and the InsP3 depletion [2] is given as “strong InsP3 depletion”.

For CCCCC(C)CCC(=O)O (centres unmarked) [4-methyloctanoic acid], the “inhibitory effect on radiolabel release” value ([3]; 3H-AA, FIG. 9) was “weak”, the activity at 500 µM ([3]; Dictyostelium, 0.5 h, Table 3, 3H-AA labelled cells, 30 min, 0.5 mM treatment, read-out: AA release [% of control]) was 66% and the activity at 500 µM [1] was 12%. The “reduction of PIP2 signalling” value ([1]; Table 1) was 93%, the “reduction of PIP signalling” value ([1]; Table 1) was 88% and the “animals in which status epilepticus terminated (spike frequency of less than 1 Hz)” value [4] was “all”. The “seizure control in words” value ([4]; 3 hour test period) was “protected against seizures over the test period”, the “animals in which seizures completely stopped” value ([4]; after 2 hours, 7 animals per group) was 7 animals and the “animals in which seizure stop was maintained” value ([4]; by three hours) was “five out of seven”. The mean spike frequency ([4]; first hour) was 39.3±11.3%, the mean spike frequency ([4]; second hour) was 18.1±10.3% and the mean spike frequency ([4]; third hour) was 26.9±12.3%. For the same compound, the “frequency of epileptiform discharges (seizure discharge frequency)” value [5] was 49.1±4.4%, the “reduction in inositol levels” value [6] was “do not acutely deplete inositol” and the “frequency of low magnesium-induced burst discharges” value [7] was “almost abolished”. The “frequency of low magnesium-induced burst discharges” value ([7]; listed as 4-MO) was 1.6±3.1 % of baseline and the “effect on 3H-AA uptake compared with VPA” value [8] was “reduced effect on uptake”.

For O=C1NC(=O)C(c2ccccc2)(c2ccccc2)N1 [phenytoin], the “response of the status epilepticus model” value [9] is given as “resistant”.

In the case of CCCC(CCC)C(N)=O [valpromide, 2-propylpentamide, reference compound], the “radiolabel release activity relative to control” value ([3]; Table 3, 30 min, 0.5 mM) is listed as “virtually no inhibition”, the “inhibition of human myo-inositol synthase” value [10] is listed as “weak inhibition” and the activity at 500 µM [1] is listed as 69.3%.
